From ChEMBL document CHEMBL4219226, “Terpenoids isolated from Chinese liverworts Lepidozia reptans and their anti-inflammatory activity” (Bioorg Med Chem, 2018)
Activity calls are given as the source filed them. The rule behind the calls is not given here.

How the values were obtained:
RAW264.7 [1] = assay: Antiinflammatory activity in mouse RAW264.7 cells assessed as inhibition of LPS-induced nitric oxide production after 24 hrs by Griess method; type: functional, cell-based; details: RAW264.7, 24 h
RAW264.7 [2] = assay: Cytotoxicity against mouse RAW264.7 cells assessed as reduction in cell viability by MTT assay; type: cell-based
THP-1 [3] = assay: Antiinflammatory activity in human THP1 cells assessed as inhibition of LPS-induced IL-alpha mRNA level preincubated for 1 hr followed by LPS stimulation measured after 12 hrs by qPCR method; type: functional, cell-based
THP-1 [4] = assay: Antiinflammatory activity in human THP1 cells assessed as inhibition of LPS-induced IL-beta mRNA level preincubated for 1 hr followed by LPS stimulation measured after 12 hrs by qPCR method; type: functional, cell-based
THP-1 [5] = assay: Antiinflammatory activity in human THP1 cells assessed as inhibition of LPS-induced IL-6 mRNA level preincubated for 1 hr followed by LPS stimulation measured after 12 hrs by qPCR method; type: functional, cell-based
THP-1 [6] = assay: Antiinflammatory activity in human THP1 cells assessed as inhibition of LPS-induced TNF-alpha mRNA level preincubated for 1 hr followed by LPS stimulation measured after 12 hrs by qPCR method; type: functional, cell-based
THP-1 [7] = assay: Antiinflammatory activity in human THP1 cells assessed as inhibition of LPS-induced […] mRNA level at 50 to 100 uM preincubated for 1 hr followed by LPS stimulation measured after 12 hrs by qPCR method; type: functional, cell-based
THP-1 [8] = assay: Antiinflammatory activity in human THP1 cells assessed as inhibition of LPS-induced COX-2 protein level at 50 to 100 uM preincubated for 1 hr followed by LPS stimulation measured after 12 hrs by Western blot method; type: functional, cell-based
[9] = target: Transcription factor p65 (Homo sapiens) (UniProt Q04206); assay: Inhibition of LPS-induced NFkB p65 phosphorylation in cytoplasm of human THP1 cells preincubated for 1 hr followed by LPS stimulation measured after 12 hrs by Western blot method
[10] = target: Transcription factor p65 (Homo sapiens) (UniProt Q04206); assay: Inhibition of LPS-induced NFkB p65 nuclear translocation in human THP1 cells preincubated for 1 hr followed by LPS stimulation measured after 12 hrs by Western blot method; type: cell-based
THP-1 [11] = assay: Inhibition of LPS-induced STAT1 nuclear translocation in human THP1 cells at 50 to 100 uM preincubated for 1 hr followed by LPS stimulation measured after 12 hrs by Western blot method; type: functional, cell-based
THP-1 [12] = assay: Inhibition of LPS-induced STAT3 nuclear translocation in human THP1 cells at 50 to 100 uM preincubated for 1 hr followed by LPS stimulation measured after 12 hrs by Western blot method; type: functional, cell-based
THP-1 [13] = assay: Inhibition of LPS-induced TFEB nuclear translocation in human THP1 cells at 50 to 100 uM preincubated for 1 hr followed by LPS stimulation measured after 12 hrs by Western blot method; type: functional, cell-based
[14] = target: T1, Transcription factor E3 (Homo sapiens) (UniProt P19532); assay: Inhibition of LPS-induced TFE3 nuclear translocation in human THP1 cells at 50 to 100 uM preincubated for 1 hr followed by LPS stimulation measured after 12 hrs by Western blot method; type: cell-based
T1 sequence (whole entry): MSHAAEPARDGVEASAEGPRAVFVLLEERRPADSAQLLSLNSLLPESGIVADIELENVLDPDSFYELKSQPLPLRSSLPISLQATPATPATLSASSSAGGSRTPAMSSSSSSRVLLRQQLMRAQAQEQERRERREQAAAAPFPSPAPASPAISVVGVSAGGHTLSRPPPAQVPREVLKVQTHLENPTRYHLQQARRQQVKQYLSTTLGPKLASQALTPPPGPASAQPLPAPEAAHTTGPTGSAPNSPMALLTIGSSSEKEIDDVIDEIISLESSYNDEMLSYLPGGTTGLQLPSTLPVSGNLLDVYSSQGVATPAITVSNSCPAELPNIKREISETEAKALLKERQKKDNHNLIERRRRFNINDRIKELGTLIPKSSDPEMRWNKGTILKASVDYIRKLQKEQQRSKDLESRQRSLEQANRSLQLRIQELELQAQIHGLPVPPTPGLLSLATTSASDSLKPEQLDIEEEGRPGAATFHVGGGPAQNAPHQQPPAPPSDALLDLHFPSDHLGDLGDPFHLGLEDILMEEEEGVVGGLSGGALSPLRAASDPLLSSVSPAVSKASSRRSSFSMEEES

[15] = target: T1, Transcription factor E3 (Homo sapiens); assay: Inhibition of GFP-fused TFE3 (unknown origin) expressed in HEK293T cells assessed as reduction in LPS-induced TFE3 nuclear translocation at 100 uM preincubated for 1 hr followed by LPS stimulation measured after 12 hrs by DAPI staining based confocal microscopic method; type: cell-based
[16] = target: Transcription factor p65 (Homo sapiens) (UniProt Q04206); assay: Inhibition of GFP-fused NFkB p65 (unknown origin) expressed in HEK293T cells assessed as reduction in LPS-induced p65 nuclear translocation at 100 uM preincubated for 1 hr followed by LPS stimulation measured after 12 hrs by DAPI staining based confocal microscopic method; type: cell-based
THP-1 [17] = assay: Antiinflammatory activity in human THP1 cells assessed as inhibition of LPS-induced […] mRNA level at 12 to 25 uM preincubated for 1 hr followed by LPS stimulation measured after 12 hrs by qPCR method; type: functional, cell-based
[18] = target: T1, Transcription factor E3 (Homo sapiens); assay: Inhibition of LPS-induced TFE3 nuclear translocation in human THP1 cells at 12 to 25 uM preincubated for 1 hr followed by LPS stimulation measured after 12 hrs by Western blot method; type: cell-based

Chain of Transcription factor p65 (Homo sapiens) (Q04206 whole entry, the tested form may be a part): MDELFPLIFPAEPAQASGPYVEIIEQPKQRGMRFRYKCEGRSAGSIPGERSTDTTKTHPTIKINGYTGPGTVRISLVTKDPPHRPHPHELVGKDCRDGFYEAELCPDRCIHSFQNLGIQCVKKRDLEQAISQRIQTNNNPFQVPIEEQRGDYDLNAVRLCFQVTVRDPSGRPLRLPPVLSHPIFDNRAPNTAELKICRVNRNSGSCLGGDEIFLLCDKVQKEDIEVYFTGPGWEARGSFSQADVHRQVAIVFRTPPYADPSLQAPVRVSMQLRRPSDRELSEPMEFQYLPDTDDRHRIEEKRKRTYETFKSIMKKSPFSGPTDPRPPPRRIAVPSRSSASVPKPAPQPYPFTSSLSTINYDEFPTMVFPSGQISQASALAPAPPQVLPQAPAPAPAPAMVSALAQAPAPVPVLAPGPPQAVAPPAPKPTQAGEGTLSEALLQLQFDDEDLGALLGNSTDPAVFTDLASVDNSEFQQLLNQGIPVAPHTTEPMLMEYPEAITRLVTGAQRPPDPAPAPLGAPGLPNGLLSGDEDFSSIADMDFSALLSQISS

CC1=C(C)C(=O)C(CC[C@@](C)(O)CCC[C@@H](C)CCC[C@@H](C)CCCC(C)C)=C(C)C1=O
IC50 (RAW264.7 [1]): > 100 µM
IC50 (RAW264.7 [2]): > 100 µM

C/C1=C/C(=O)C/C(C)=C/C[C@]2(C)CC[C@](O)(C(C)C)[C@H]2CC1
IC50 (RAW264.7 [1]): 34.9 µM
inhibition (THP-1 [3]): Dose-dependent effect
inhibition (THP-1 [4]): Dose-dependent effect
inhibition (THP-1 [5]): Dose-dependent effect
inhibition (THP-1 [6]): Dose-dependent effect
inhibition (THP-1 [7]): Active
inhibition (THP-1 [8]): Active
inhibition [9]: Dose-dependent effect
inhibition [10]: Dose-dependent effect
inhibition (THP-1 [11]): inactive
inhibition (THP-1 [12]): inactive
inhibition (THP-1 [13]): inactive
inhibition [14]: Active
inhibition [15]: Active
inhibition [16]: Active
IC50 (RAW264.7 [2]): > 100 µM

O=c1cc(-c2ccc(O)c(O)c2)oc2cc(O)cc(O)c12 [LUTEOLIN]
IC50 (RAW264.7 [1]): 14.4 µM
inhibition (THP-1 [17]): Active
inhibition [18]: Active
IC50 (RAW264.7 [2]): > 50 µM
